For assay [1], the target named is T1, Mineralocorticoid receptor (Homo sapiens) (UniProt P08235).
T1 sequence (whole entry): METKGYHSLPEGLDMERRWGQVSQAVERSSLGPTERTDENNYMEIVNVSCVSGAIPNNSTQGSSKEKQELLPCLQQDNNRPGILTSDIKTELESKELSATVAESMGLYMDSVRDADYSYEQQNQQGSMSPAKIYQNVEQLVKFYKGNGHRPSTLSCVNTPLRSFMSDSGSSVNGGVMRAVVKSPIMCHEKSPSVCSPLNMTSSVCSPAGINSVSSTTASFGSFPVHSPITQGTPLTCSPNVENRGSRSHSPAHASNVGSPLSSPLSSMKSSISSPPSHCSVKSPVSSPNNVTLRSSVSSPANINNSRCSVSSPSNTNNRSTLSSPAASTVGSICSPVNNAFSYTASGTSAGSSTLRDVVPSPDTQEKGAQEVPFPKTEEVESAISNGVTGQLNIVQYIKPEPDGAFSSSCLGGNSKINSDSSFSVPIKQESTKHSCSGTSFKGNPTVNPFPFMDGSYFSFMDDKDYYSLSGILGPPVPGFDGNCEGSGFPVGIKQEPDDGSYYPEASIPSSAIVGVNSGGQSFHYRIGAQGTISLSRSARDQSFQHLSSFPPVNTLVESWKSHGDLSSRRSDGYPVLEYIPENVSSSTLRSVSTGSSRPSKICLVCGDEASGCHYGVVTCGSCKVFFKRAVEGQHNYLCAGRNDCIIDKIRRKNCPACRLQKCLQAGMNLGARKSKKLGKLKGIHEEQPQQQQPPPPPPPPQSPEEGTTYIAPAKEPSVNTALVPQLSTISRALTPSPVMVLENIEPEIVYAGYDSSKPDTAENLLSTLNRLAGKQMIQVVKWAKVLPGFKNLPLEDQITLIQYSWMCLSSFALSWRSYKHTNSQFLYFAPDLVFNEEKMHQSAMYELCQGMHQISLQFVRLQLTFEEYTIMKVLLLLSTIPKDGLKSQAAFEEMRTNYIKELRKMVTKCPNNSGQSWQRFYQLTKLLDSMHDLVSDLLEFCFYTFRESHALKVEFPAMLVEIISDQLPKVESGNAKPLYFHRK
The assay is described as follows: Agonist activity at GAL4 DNA binding domain fused mineralocorticoid receptor ligand binding domain (unknown origin) at 0.25 to 25 uM by FRET-based assay.

Assay [2] deals with Mus musculus. In words: Memory enhancement effect in C57BL/6 mouse assessed as time spent with moved object at 10 pg administered as dorsal hippocampal infusion by novel object recognition test. It counts as functional.
For assay [3], the system named is Mus musculus. The assay is described as follows: Memory enhancement effect in C57BL/6 mouse assessed as time spent with moved object at 100 pg administered as dorsal hippocampal infusion by novel object recognition test. It counts as functional.
Assay [4] concerns Mus musculus. In words: Memory enhancement effect in C57BL/6 mouse assessed as time spent with novel object at 10 pg administered as dorsal hippocampal infusion by novel object recognition test. It counts as functional.
In assay [5] the test system is Mus musculus. In words: Memory enhancement effect in C57BL/6 mouse assessed as time spent with novel object at 100 pg administered as dorsal hippocampal infusion by novel object recognition test. It counts as functional.
Assay [6] has as its system Mus musculus. The assay is described as follows: Memory enhancement effect in C57BL/6 mouse assessed as time spent with novel object at 1 ng administered as dorsal hippocampal infusion by novel object recognition test. Format: functional.
The subject of assay [7] is Mus musculus. In words: Memory enhancement effect in C57BL/6 mouse assessed as time spent with moved object at 0.5 mg/kg, ip by novel object recognition test. It counts as functional.
Assay [8] has as its system Mus musculus. The assay is described as follows: Memory enhancement effect in C57BL/6 mouse assessed as time spent with novel object at 5 mg/kg, ip by novel object recognition test. Format: functional.
For assay [9], the system named is Mus musculus. The assay is described as follows: Memory enhancement effect in C57BL/6 mouse assessed as time spent with novel object at 0.5 mg/kg, po administered via gavage by novel object recognition test. Format: functional.
In assay [10] the target is T2, Estrogen receptor (Homo sapiens, UniProt P03372).
T2 sequence (P03372 whole entry): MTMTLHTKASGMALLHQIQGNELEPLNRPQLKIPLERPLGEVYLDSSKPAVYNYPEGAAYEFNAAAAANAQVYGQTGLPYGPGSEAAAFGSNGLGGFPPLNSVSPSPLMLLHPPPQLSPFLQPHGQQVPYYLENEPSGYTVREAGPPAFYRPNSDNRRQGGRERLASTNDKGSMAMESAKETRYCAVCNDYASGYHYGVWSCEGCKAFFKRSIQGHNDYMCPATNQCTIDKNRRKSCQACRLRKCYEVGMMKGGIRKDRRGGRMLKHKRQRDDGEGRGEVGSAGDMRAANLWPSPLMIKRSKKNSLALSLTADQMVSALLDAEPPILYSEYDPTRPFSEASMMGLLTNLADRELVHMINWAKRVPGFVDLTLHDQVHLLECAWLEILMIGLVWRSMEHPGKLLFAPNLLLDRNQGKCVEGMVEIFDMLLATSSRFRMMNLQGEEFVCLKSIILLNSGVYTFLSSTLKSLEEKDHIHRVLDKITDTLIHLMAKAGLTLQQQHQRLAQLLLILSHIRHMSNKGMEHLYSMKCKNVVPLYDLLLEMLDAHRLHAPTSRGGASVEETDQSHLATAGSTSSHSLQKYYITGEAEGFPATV

Assay [11] has as its target T2, Estrogen receptor. The source holds these as a separate data set.
Description: Agonist activity at estrogen receptor alpha (unknown origin) after 22 hrs by cell-based luciferase reporter gene assay
Assay [12] addresses T2, Estrogen receptor. The source holds these as a separate data set.
In assay [13] the target is Cytochrome P450 2C9 (Homo sapiens, UniProt P11712).
Description: Inhibition of human recombinant CYP2C9 preincubated for 10 mins followed by NADPH addition and measured after 10 to 30 mins by P450-Glo luminescence assay
Assay [14] concerns the target Cytochrome P450 3A4 (Homo sapiens, UniProt P08684).
Description: Inhibition of human recombinant CYP3A4 preincubated for 10 mins followed by NADPH addition and measured after 10 to 30 mins by P450-Glo luminescence assay
In assay [15] the target is T2, Estrogen receptor. The assay is described as follows: cell-based.
Description: Agonist activity at GAL4 DNA binding domain fused full-length chimeric estrogen receptor alpha (unknown origin) by FRET-based assay

Calls of active or inactive are those of the source. No cut-off for these calls is given here.

Cytochrome P450 2C9, sequence (P11712 whole entry): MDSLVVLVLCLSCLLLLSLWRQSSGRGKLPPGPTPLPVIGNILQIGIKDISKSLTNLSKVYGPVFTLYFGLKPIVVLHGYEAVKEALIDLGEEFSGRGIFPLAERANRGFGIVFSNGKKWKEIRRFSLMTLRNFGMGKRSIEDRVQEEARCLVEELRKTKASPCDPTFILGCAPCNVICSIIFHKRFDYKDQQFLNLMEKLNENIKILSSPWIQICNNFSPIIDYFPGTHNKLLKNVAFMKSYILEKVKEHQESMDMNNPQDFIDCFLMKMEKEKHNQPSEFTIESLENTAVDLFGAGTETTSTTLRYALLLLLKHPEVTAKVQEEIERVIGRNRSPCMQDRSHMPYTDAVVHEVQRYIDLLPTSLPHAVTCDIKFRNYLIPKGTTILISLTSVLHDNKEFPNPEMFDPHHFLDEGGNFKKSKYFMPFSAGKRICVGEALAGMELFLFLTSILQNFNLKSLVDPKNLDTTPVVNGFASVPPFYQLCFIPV
Cytochrome P450 3A4, sequence (P08684 whole entry): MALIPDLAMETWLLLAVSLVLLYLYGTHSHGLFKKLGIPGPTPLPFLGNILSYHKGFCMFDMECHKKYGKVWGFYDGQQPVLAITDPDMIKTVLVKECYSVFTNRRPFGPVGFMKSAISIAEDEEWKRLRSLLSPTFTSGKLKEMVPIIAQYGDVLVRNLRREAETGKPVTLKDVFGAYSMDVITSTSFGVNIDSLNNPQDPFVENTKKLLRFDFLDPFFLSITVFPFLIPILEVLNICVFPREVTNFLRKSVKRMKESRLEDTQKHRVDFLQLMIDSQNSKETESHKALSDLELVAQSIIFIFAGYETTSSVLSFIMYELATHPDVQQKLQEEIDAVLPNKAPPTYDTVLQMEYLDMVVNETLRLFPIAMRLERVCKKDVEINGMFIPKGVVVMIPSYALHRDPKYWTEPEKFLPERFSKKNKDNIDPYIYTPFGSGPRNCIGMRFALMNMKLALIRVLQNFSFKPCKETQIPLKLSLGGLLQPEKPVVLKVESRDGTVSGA

As usually defined, the EC50 is the concentration that produces a half-maximal response. High values mean lower potency in that assay, low ones higher potency in that assay. For the compound `OC[C@H]1CC[C@H](c2ccc(O)cc2)CC1`, the outcome in assay [1] was inactive. For the same compound, the Time in assay [2] is 1.19 s; in [3], 10.3 s; in [4] it was 0.88 s; in assay [5], 3.16 s; in assay [6] it was 1.08 s; in [7], 3.93 s. Besides, the figures for the Time in assay [8] and in [9] were 1.65 s and 5.3 s, respectively. Also, the 50% effective concentration (EC50) is 0.289 µM in [10]; 20.4 µM in [11]; greater than 10 µM in assay [12]; 34 µM in [13]; 89 µM in [14]; 0.93 µM in assay [15].
